Measured values: patent publication US20090203705A1, “Spiro Compounds As NPY Y5 Receptor Antagonists” (priority 2008, published 2009)
Counter-ions that a name gives are not always drawn.

What follows are molecules tested against T1, human NPY Y5 receptor (Homo sapiens, UniProt Q15761) (assay: FLIPR/Ca2+ functional activity at recombinant human NPY Y5 receptor). Details: HEK 293 signal-hNPY Y5/G16z49 cells; inhibition of calcium release by PYY at EC80; Cheng-Prusoff; read-out: fpKi.
T1 construct: expressed in transfected cells; host or cells: HEK293 (cell line HEK 293 signal-hNPY Y5/G16z49)
T1 sequence (Q15761 1-445): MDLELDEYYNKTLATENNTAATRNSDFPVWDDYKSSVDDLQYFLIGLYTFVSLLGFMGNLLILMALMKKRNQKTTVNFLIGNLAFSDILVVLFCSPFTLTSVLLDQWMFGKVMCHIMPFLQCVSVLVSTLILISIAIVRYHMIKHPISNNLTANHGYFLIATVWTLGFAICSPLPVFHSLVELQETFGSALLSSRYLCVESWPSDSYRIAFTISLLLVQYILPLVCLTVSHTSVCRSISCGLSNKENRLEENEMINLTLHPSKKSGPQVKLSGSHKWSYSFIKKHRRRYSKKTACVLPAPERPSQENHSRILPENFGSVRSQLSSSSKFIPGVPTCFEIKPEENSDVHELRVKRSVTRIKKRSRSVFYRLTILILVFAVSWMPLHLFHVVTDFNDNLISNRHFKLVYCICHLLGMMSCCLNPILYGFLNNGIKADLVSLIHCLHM
Type: cell-based
Description: The functional activity of the compounds of the invention for the NPY Y5 receptor may be determined by the FLIPR/Ca^2+ assay as described below. Such potency is typically calculated from the IC50 obtained in FLIPR experiments as the concentration of a compound necessary to decrease 50% of the calcium release following cells exposure to a concentration of PYY eliciting 80% response (i.e. EC80), and is reported as a “fKi” value calculated by the following equation: […]
where EC80 and EC50 corresponding to the agonist (PYY) concentrations that eliciting 80% and 50% response, respectively (corresponding to the Cheng and Prusoff equation). In the context of the present invention pfKi values (corresponding to the […] of fKi) are used instead of fKi; pfKi results are only estimated to be accurate to about 0.3-0.5.
The functional activity at the human NPY Y5 receptor stably expressed in HEK293 cells was assessed using FLIPR/Ca^2+ methodology (cell line name: HEK 293 signal-hNPY Y5/G16z49). The assay is configured to re-direct receptor-mediated signalling to the calcium release from intracellular stores via the promiscuous Gal 6z49 protein. PYY (peptide YY) is an endogenous agonist and can activate the receptor, thereupon causing an increase in the level of calcium in the cells sensed by Fluo4-AM and measured by FLIPR. Antagonist effects are monitored by the blockade or decrease in calcium release once cells co-expressing hNPY Y5 receptor and Ga16z49 are exposed to a concentration of PYY eliciting 80% response (i.e. EC80). A non-linear, 4 parameter logistic curve-fit of the data generated pIC50 value. Applying the Cheng-Prusoff equation to antagonist concentration-response for inhibition of fixed PYY concentration yielded the fpKi values.
Cells are cultured in DMEM/F12 supplemented with 10% FBS, 2 mM Glutamine, 200 μg/ml hygromycin B and 500 μg/ml G418. The day before a FLIPR experiment, cells are plated out into 384-well Poly-D-Lysine coated FLIPR plates at a density of 200'000 cells/ml corrects to give 10'000 cells per 50 μL per well using medium without antibiotics. On the day of experiment, cells are washed with an assay buffer containing 20 mM HEPES/NaOH, 145 mM NaCl, 5 mM KCl, 1 mM MgCl2, 2 mM CaCl2, 1 g/L D-glucose and 2.5 mM probenecid, pH 7.3 and loaded with 2 μM Fluo-4 AM for 60 min at 37° C. and 5% CO2. The excess of dye solution is removed by washing cells with buffer. Compound solutions, prepared by serially diluting compounds in neat DMSO and then a final 1:50 dilution step in assay buffer added with 0.05% pluronic acid, are added and incubated with the loaded cells for 30 min at 37° C. and 5% CO2.
Cells are then put in the FLIPR for the stimulus addition corresponding to a concentration of PYY eliciting 80% of the response. The response of cells to the agonist is fast and measured for 2 min after PYY addition.
`O=C1O[C@]2(CC[C@H](CNc3ccc(-c4cc(F)cc(F)c4)nn3)CC2)CN1c1cccnn1` [Example 4-3, (Trans)-8-({[6-(3,5-difluorophenyl)-3-pyridazinyl]amino}methyl)-3-(3-pyridazinyl)-1-oxa-3-azaspiro[4.5]decan-2-one Dihydrochloride] showed a Ki of at most 0.1 nM. In the case of `O=C1O[C@]2(CC[C@H](CNc3ccc(-c4ccccc4F)nn3)CC2)CN1c1cccnc1F` [Example 4-7, (Trans)-8-({[6-(2-fluorophenyl)-3-pyridazinyl]amino}methyl)-3-(2-fluoro-3-pyridinyl)-1-oxa-3-azaspiro[4.5]decan-2-one Hydrochloride], the Ki is reported as at most 0.316 nM. `O=C1O[C@]2(CC[C@H](CNc3ccc(-c4ccccc4)nn3)CC2)CN1c1cccnn1` [Example 4-38, (Trans)-8-{[(6-phenyl-3-pyridazinyl)amino]methyl}-3-(3-pyridazinyl)-1-oxa-3-azaspiro[4.5]decan-2-one Dihydrochloride] was tested, and the Ki was at most 1 nM. In the case of `Cc1cc(N2C[C@]3(CC[C@@H](CNc4ccc(-c5ccccc5C)nn4)CC3)OC2=O)ccn1` [Example 4-39, (Trans)-8-({[6-(2-methylphenyl)-3-pyridazinyl]amino}methyl)-3-(2-methyl-4-pyridinyl)-1-oxa-3-azaspiro[4.5]decan-2-one Dihydrochloride], the Ki is reported as at most 0.1 nM. Molecule `O=C1O[C@]2(CC[C@H](CNc3ccc(-c4cccc(C(F)(F)F)c4)nn3)CC2)CN1c1cccnn1` [Example 4-40, (Trans)-3-(3-pyridazinyl)-8-[({6-[3-(trifluoromethyl)phenyl]-3-pyridazinyl}amino)methyl]-1-oxa-3-azaspiro[4.5]decan-2-one Hydrochloride] has a Ki of at most 0.1 nM. With `O=C1O[C@]2(CC[C@H](CNc3ccc(Oc4ccccc4OC(F)(F)F)nn3)CC2)CN1c1cccnn1` [Example 4-56, (Trans)-3-(3-pyridazinyl)-8-({[6-({2-[(trifluoromethyl)oxy]phenyl}oxy)-3-pyridazinyl]amino}methyl)-1-oxa-3-azaspiro[4.5]decan-2-one] the Ki was at most 0.1 nM.

Same assay, conditions: assay not given; towards NPY Y5 receptor
`Cl.O=C1OC2(CCC(CNc3cc(-c4ccccc4)ccn3)CC2)CN1c1cccnn1` (stereo not drawn) [Example 1-39, (Trans)-8-{[(4-phenyl-2-pyridinyl)amino]methyl}-3-(3-pyridazinyl)-1-oxa-3-azaspiro[4.5]decan-2-one hydrochloride] was tested, and the “activity at the highest concentration set by the experiment” value (“activity” below) was “don't show activity”. In the case of `Cl.Cl.O=C1OC2(CCC(CNc3ccc(C(F)(F)F)nc3)CC2)CN1c1cccnc1` (stereo not drawn) [Example 1-55, (Trans)-3-(3-pyridinyl)-8-({[6-(trifluoromethyl)-3-pyridinyl]amino}methyl)-1-oxa-3-azaspiro[4.5]decan-2-one Dihydrochloride], the “activity” value is reported as “don't show activity”. With `Cl.Cl.O=C1O[C@]2(CC[C@H](CNc3ccc(N4CCOCC4)nc3)CC2)CN1c1ccccn1` [Example 1-57, (Trans)-8-({[6-(4-morpholinyl)-3-pyridinyl]amino}methyl)-3-(2-pyridinyl)-1-oxa-3-azaspiro[4.5]decan-2-one.dihydrochloride] the “activity” value was “don't show activity”. For `Cn1ccnc1-c1cnc(NCC2CCC3(CC2)CN(c2ccccn2)C(=O)O3)nc1` (stereo not drawn) [Example 3-6, (Trans)-8-({[5-(1-methyl-1H-imidazol-2-yl)-2-pyrimidinyl]amino}methyl)-3-(2-pyridinyl)-1-oxa-3-azaspiro[4.5]decan-2-one], the “activity” value was “don't show activity”. In the case of `O=C1OC2(CCC(CNc3ncc(Br)cn3)CC2)CN1c1ccccn1` (stereo not drawn) [Example 3-7, (Trans)-8-{[(5-bromo-2-pyrimidinyl]amino}methyl)-3-(2-pyridinyl)-1-oxa-3-azaspiro[4.5]decan-2-one], the “activity” value is reported as “don't show activity”. In the case of `O=C1OC2(CCC(CNc3ncc(-c4ccnnc4)cn3)CC2)CN1c1ccccn1` (stereo not drawn) [Example 3-9, (Trans)-8-({[5-(4-pyridazinyl)-2-pyrimidinyl]amino}methyl)-3-(2-pyridinyl)-1-oxa-3-azaspiro[4.5]decan-2-one], the “activity” value is reported as “don't show activity”. `Cl.O=C1OC2(CCC(CNc3nccc(OCc4ccccc4)n3)CC2)CN1c1cccnn1` (stereo not drawn) [Example 3-12, (Trans)-8-[({4-[(phenylmethyl)oxy]-2-pyrimidinyl}amino)methyl]-3-(3-pyridazinyl)-1-oxa-3-azaspiro[4.5]decan-2-one hydrochloride] was tested, and the “activity” value was “don't show activity”. With `CC(C)(C)OCCOc1ccc(NCC2CCC3(CC2)CN(c2cccnn2)C(=O)O3)nn1.Cl.Cl` (stereo not drawn) [Example 4-10, (Trans)-8-({[6-({2-[(1,1-dimethylethyl)oxy]ethyl}oxy)-3-pyridazinyl]amino}methyl)-3-(3-pyridazinyl)-1-oxa-3-azaspiro[4.5]decan-2-one dihydrochloride] the “activity” value was “don't show activity”. `O=C1OC2(CCC(CNc3ccc(Cl)nn3)CC2)CN1c1ccccn1` (stereo not drawn) [Example 4-12, (Trans)-8-{[(6-chloro-3-pyridazinyl)amino]methyl}-3-(2-pyridinyl)-1-oxa-3-azaspiro[4.5]-decan-2-one] was tested, and the “activity” value was “don't show activity”. `Cl.O=C1OC2(CCC(CNc3nsc4ccccc34)CC2)CN1c1cccnn1` (stereo not drawn) [Example 5-5, (Trans)-8-[(1,2-benzisothiazol-3-ylamino)methyl]-3-(3-pyridazinyl)-1-oxa-3-azaspiro[4.5]-decan-2-one Hydrochloride] was tested, and the “activity” value was “don't show activity”. For “(Trans)-8-({[4-(1-pyrimidinyl)-2-pyrimidinyl]amino}methyl)-3-(3-pyridazinyl)-1-oxa-3-azaspiro[4.5]decan-2-one Dihydrochloride [Example 3-11]”, the “activity” value was “don't show activity”.
